For 37 molecules, IC50 results are on record in patent US9790221B2, “Heteroaryl compounds as IRAK inhibitors and uses thereof” (Merck Patent GmbH, priority 2014, dated 2017).

Test [1] has as its target IRAK1 (His-TEV-IRAK1 (194-712)) (Homo sapiens (Human), UniProt P51617). Put plainly: IRAK1 enzymatic assay. In kind it is biochemical. As for the experimental part: IRAK1 is a human purified recombinant enzyme (His-TEV-IRAK1 (194-712)). In this assay, IRAK-1 hydrolyses ATP and autophosphorylates. Measurement of IRAK-1 inhibition was performed in streptavidin coated 384well FlashPlate (PerkinElmer #SMP410A).
His-TEV-IRAK-1 (15 ng/well), ATP (1 μM, [33P]ATP 0.25 μCi/well) and compounds in DMSO (range of concentrations from 20 µM to 1 nM) or controls (2% DMSO) were incubated for 3 hours at 30° C. in assay buffer: Hepes pH7.0 50 mM, Fatty acid-free BSA 0.1%, Dithiothreitol DTT 2 mM, MgCl2 10 mM, EGTA 0.5 mM, Triton-X-100 0.01%. Kinase reaction was stopped by addition of EDTA. Supernatant was discarded, plates were washed three times with 150 mM NaCl and radioactivity was then measured in a Microbeta Trilux reader.

The next test concerns the target IRAK4 (Homo sapiens (Human), UniProt Q9NWZ3). Put plainly: IRAK4 enzymatic assay. The class given is biochemical. As for the experimental part:
IRAK4 is a human purified recombinant enzyme ([…]. IRAK4 hydrolyses ATP, autophosphorylates and phosphorylates a Serine/Threonine generic peptidic substrate (STK: 61ST1BLC from CisBio International based in Bagnols/Cèze FR).
Measurement of IRAK-4 inhibition was performed in streptavidin coated 384well FlashPlate (PerkinElmer #SMP410A). His-TEV-IRAK4 (20 ng/well), ATP (2 μM, [^33P]ATP 0.25 µCi/well), STK1-biotin peptide (300 nM) and compounds in DMSO (range of concentrations from 20 µM to 1 nM) or controls (2% DMSO) were incubated for 3 hours at 30° C. in assay buffer: Hepes pH7.0 50 mM, Fatty acid-free BSA 0.1%, Dithiothreitol DTT 2 mM, MgCl2 10 mM, EGTA 0.5 mM, Tween-20 0.01%, MnCl2 5 mM.
Kinase reaction was stopped by addition of EDTA. Supernatant was discarded, plates were washed three times with 150 mM NaCl and radioactivity was then measured in a Microbeta Trilux reader.

Molecules are shown by their SMILES.

Chain of IRAK4 (Q9NWZ3 whole entry): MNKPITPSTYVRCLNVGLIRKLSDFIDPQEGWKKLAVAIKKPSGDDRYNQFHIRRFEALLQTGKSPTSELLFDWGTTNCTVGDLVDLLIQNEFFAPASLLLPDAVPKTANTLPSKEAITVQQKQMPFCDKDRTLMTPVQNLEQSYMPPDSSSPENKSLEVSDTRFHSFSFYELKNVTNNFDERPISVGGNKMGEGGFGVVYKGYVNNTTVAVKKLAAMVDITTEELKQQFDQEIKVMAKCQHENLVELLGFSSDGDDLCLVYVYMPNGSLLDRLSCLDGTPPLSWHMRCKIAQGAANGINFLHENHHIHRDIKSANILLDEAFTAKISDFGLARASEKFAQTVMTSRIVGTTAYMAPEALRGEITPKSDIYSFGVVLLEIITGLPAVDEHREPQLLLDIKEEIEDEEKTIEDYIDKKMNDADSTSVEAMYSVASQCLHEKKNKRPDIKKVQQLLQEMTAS
Chain of IRAK1 (His-TEV-IRAK1 (194-712)) (P51617 194-712): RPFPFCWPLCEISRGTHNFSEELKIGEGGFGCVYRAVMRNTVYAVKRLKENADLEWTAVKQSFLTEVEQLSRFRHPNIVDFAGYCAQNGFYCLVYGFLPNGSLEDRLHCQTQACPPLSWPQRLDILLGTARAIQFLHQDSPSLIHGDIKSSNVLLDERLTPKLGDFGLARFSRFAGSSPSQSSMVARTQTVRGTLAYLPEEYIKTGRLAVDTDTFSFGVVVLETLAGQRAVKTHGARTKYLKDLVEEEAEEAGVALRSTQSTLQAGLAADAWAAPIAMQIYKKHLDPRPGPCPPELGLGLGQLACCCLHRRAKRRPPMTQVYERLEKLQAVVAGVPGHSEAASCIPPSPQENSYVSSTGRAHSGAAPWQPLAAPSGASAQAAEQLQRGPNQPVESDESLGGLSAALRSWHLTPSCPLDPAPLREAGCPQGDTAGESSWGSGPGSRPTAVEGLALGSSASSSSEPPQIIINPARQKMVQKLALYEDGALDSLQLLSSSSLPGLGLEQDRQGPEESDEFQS

For `Cn1cc(-c2cccc(-c3ncc(-c4cnn(C)c4)c(NC4C5CCCC4CC(NS(C)(=O)=O)C5)n3)c2)cn1` (centres unmarked) [Example 159], the concentration for half-maximal inhibition (IC50) in test [1] is above 5000 nM; against IRAK4, below 100 nM.

For the molecule `Cn1cc(-c2cccc(-c3ncc(-c4cnn(C)c4)c(NC4CC5(C4)CC(NS(C)(=O)=O)C5)n3)c2)cn1` (centres unmarked) [Example 160], the IC50 in test [1] was 100 to 1000 nM; against IRAK4, below 100 nM.

In the case of `Cn1cc(-c2cccc(-c3ncc(-c4cnn(C)c4)c(NCC4CCC4)n3)c2)cn1` [Example 163], the IC50 in test [1] was 100 to 1000 nM; at IRAK4, below 100 nM.

On to `Cn1cc(-c2cccc(-c3ncc(-c4cnn(C)c4)c(NC4CCC5CN(S(C)(=O)=O)CC54)n3)c2)cn1` (centres unmarked) [Example 168], for which the IC50 is above 5000 nM in test [1] and below 100 nM on IRAK4.

With `Cn1cc(-c2cccc(-c3ncc(-c4cnn(C)c4)c(NCC4CN(S(C)(=O)=O)CCO4)n3)c2)cn1` (centres unmarked) [Example 172], the IC50 is 100 to 1000 nM in test [1] and below 100 nM at IRAK4.

In the case of `Cn1cc(-c2cccc(-c3ncc(-c4cnn(C)c4)c(NCC4[C@H]5CN(S(C)(=O)=O)C[C@@H]45)n3)c2)cn1` (some centres unmarked) [Example 173], the IC50 in test [1] is above 5000 nM; at IRAK4, 100 to 1000 nM.

Consider `Cn1cc(-c2cccc(-c3ncc(-c4cnn(C)c4)c(NC[C@H]4CCN(S(C)(=O)=O)C4)n3)c2)cn1` [Example 174], for which the IC50 in test [1] is 100 to 1000 nM; on IRAK4 it was below 100 nM.

As to `Cn1cc(-c2cccc(-c3ncc(-c4cnn(C)c4)c(NCCC4CCN(S(C)(=O)=O)C4)n3)c2)cn1` (centres unmarked) [Example 175], the IC50 (in test [1]; against IRAK4) was 100 to 1000 nM in each case.

In the case of `Cn1cc(-c2cccc(-c3ncc(-c4cnn(C)c4)c(NCCCCNS(C)(=O)=O)n3)c2)cn1` [Example 177], the results for the IC50 (in test [1]; on IRAK4) were 100 to 1000 nM and below 100 nM, respectively.

With `Cn1cc(-c2cccc(-c3ncc(-c4cnn(C)c4)c(NC4CCCCN(S(C)(=O)=O)C4)n3)c2)cn1` (centres unmarked) [Example 178], the IC50 (in test [1]; against IRAK4) was 100 to 1000 nM each time.

As for `Cn1cc(-c2cccc(-c3ncc(-c4cnn(C)c4)c(NC4CC(CO)(CO)C4)n3)c2)cn1` [Example 180], the values for the IC50 (in test [1]; against IRAK4) were 100 to 1000 nM and below 100 nM, respectively.

Regarding `Cn1cc(-c2cccc(-c3ncc(-c4cnn(C)c4)c(NC4CC5CC4N(S(C)(=O)=O)C5)n3)c2)cn1` (centres unmarked) [Example 189], the IC50 (in test [1]; against IRAK4) was above 5000 nM in each case.

Regarding `Cn1cc(-c2cccc(-c3ncc(-c4cnn(C)c4)c(N4CC5CNCC5C4)n3)c2)cn1` (centres unmarked) [Example 191], the results for the half-maximal inhibitory concentration (IC50) (in test [1]; against IRAK4) were above 5000 nM and 100 to 1000 nM, respectively.

With `Cc1nnc(-c2cnc(-c3cccc(-c4cnn(C)c4)c3)nc2NCC2CN(S(C)(=O)=O)C2)s1` [Example 192], the IC50 in test [1] was 1000 to 5000 nM; against IRAK4 it was below 100 nM.

In the case of `Cn1cc(-c2cccc(-c3ncc(-c4cnn(C)c4)c(NC4CC5CCC4N5)n3)c2)cn1` (centres unmarked) [Example 193], the results for the IC50 (in test [1]; on IRAK4) were above 5000 nM and 100 to 1000 nM, respectively.

As to `Cn1cc(-c2cccc(-c3ncc(-c4cnn(C)c4)c(N[C@H]4C[C@H](N)C4)n3)c2)cn1` [Example 197], the IC50 is above 5000 nM in test [1] and 100 to 1000 nM against IRAK4.

For the molecule `CC(=O)NCC1CCC(Nc2nc(-c3cccc(-c4cnn(C)c4)c3)ncc2-c2cnn(C)c2)CC1` (centres unmarked) [Example 198], the values for the IC50 (in test [1]; at IRAK4) were 1000 to 5000 nM and below 100 nM, respectively.

With `Cn1cc(-c2cccc(-c3ncc(-c4cnn(C)c4)c(NCC4CCCC4N)n3)c2)cn1` (centres unmarked) [Example 200], the IC50 in test [1] was 1000 to 5000 nM; at IRAK4, 100 to 1000 nM.

Take `Cn1cc(-c2cccc(-c3ncc(-c4cnn(C)c4)c(NC4CCC(CNS(C)(=O)=O)CC4)n3)c2)cn1` (centres unmarked) [Example 201]: the half-maximal inhibitory concentration (IC50) in test [1] is 1000 to 5000 nM; against IRAK4 it was below 100 nM.

Regarding `CC(=O)N[C@H]1C[C@H](Nc2nc(-c3cccc(-c4cnn(C)c4)c3)ncc2-c2cnn(C)c2)C1` [Example 202], the concentration for half-maximal inhibition (IC50) in test [1] is 1000 to 5000 nM; on IRAK4, 100 to 1000 nM.

Regarding `Cn1cc(-c2cccc(-c3ncc(-c4cnn(C)c4)c(NCC4CCCC4NS(C)(=O)=O)n3)c2)cn1` (centres unmarked) [Example 203], the IC50 in test [1] lay within 1000 to 5000 nM; against IRAK4 it was 100 to 1000 nM.

Consider `CC(=O)NC1CCC(Nc2nc(-c3cccc(-c4cnn(C)c4)c3)ncc2-c2nnc(C)s2)CC1` (centres unmarked) [Example 205], for which the IC50 is 100 to 1000 nM in test [1] and below 100 nM against IRAK4.

In the case of `CC(=O)NC[C@H]1C[C@H](Nc2nc(-c3cccc(-c4cnn(C)c4)c3)ncc2-c2cnn(C)c2)C1` [Example 212, N-(3-{5-(1-Methyl-1H-pyrazol-4-yl)-2-[3-(1-methyl-1H-pyrazol-4-yl)-phenyl]-pyrimidin-4-ylamino}-cyclobutylmethyl)-acetamide], the IC50 is above 5000 nM in test [1] and 100 to 1000 nM on IRAK4.

Regarding `Cn1cc(-c2cccc(-c3ncc(-c4cnn(C)c4)c(N4CCC(O)C4)n3)c2)cn1` (centres unmarked) [Example 218], the IC50 lay in the range of 1000 to 5000 nM in test [1] and 100 to 1000 nM at IRAK4.

Take `Cn1cc(-c2cccc(-c3ncc(-c4cnn(C)c4)c(N4CCCC(CO)C4)n3)c2)cn1` (centres unmarked) [Example 220]: the results for the IC50 (in test [1]; at IRAK4) were 100 to 1000 nM and below 100 nM, respectively.

Regarding `CN(CCC#N)c1nc(-c2cccc(-c3cnn(C)c3)c2)ncc1-c1cnn(C)c1` [Example 222], the IC50 (in test [1]; against IRAK4) was 100 to 1000 nM each time.

Regarding `Cn1cc(-c2cccc(-c3ncc(-c4cnn(C)c4)c(NC(C)(C)C)n3)c2)cn1` [Example 223], the IC50 is 100 to 1000 nM in test [1] and below 100 nM at IRAK4.

With `Cn1cc(-c2cccc(-c3ncc(-c4cnn(C)c4)c(NC[C@@H]4CCCC[C@H]4O)n3)c2)cn1` [Example 224], the IC50 in test [1] is 1000 to 5000 nM; at IRAK4, below 100 nM.

Take `Cn1cc(-c2cccc(-c3ncc(-c4cnn(C)c4)c(N4CC(O)C4)n3)c2)cn1` [Example 226]: the IC50 in test [1] was above 5000 nM; against IRAK4, 100 to 1000 nM.

`Cn1cc(-c2cccc(-c3ncc(-c4cnn(C)c4)c(NCCC4(O)CCCC4)n3)c2)cn1` [Example 227]: the figures for the IC50 (in test [1]; at IRAK4) were 100 to 1000 nM and below 100 nM, respectively.

With `Cn1cc(-c2cccc(-c3ncc(-c4cnn(C)c4)c(N4CCC(CCO)C4)n3)c2)cn1` (centres unmarked) [Example 228], the figures for the IC50 (in test [1]; at IRAK4) were above 5000 nM and 1000 to 5000 nM, respectively.

As for `Cn1cc(-c2cccc(-c3ncc(-c4cnn(C)c4)c(NCC4CCNCC4F)n3)c2)cn1` (centres unmarked) [Example 229], the figures for the IC50 (in test [1]; against IRAK4) were above 5000 nM and 100 to 1000 nM, respectively.

Regarding `Cn1cc(-c2cccc(-c3ncc(-c4cnn(C)c4)c(N4CCC[C@H]4CO)n3)c2)cn1` [Example 230], the half-maximal inhibitory concentration (IC50) was above 5000 nM in test [1] and 1000 to 5000 nM against IRAK4.

Consider `Cn1cc(-c2cccc(-c3ncc(-c4cnn(C)c4)c(NCC4(F)CCNCC4)n3)c2)cn1` [Example 231], for which the 50% inhibitory concentration (IC50) in test [1] was above 5000 nM; at IRAK4, 1000 to 5000 nM.

`COC(=O)[C@@H]1CCC[C@H](Nc2nc(-c3cccc(-c4cnn(C)c4)c3)ncc2-c2cnn(C)c2)C1` [Example 232]: the IC50 in test [1] is 100 to 1000 nM; on IRAK4, below 100 nM.

Regarding `Cn1cc(-c2cccc(-c3ncc(-c4cnn(C)c4)c(NCC4CCN(S(C)(=O)=O)CC4F)n3)c2)cn1` (centres unmarked) [Example 234], the IC50 was 1000 to 5000 nM in test [1] and below 100 nM against IRAK4.

Consider `CC(=O)N1CCC(CNc2nc(-c3cccc(-c4cnn(C)c4)c3)ncc2-c2cnn(C)c2)C(F)C1` (centres unmarked) [Example 235], for which the IC50 in test [1] was in the range of 1000 to 5000 nM; against IRAK4, 100 to 1000 nM.

As usually defined, the IC50 is the concentration needed to halve the response being measured. Read a low IC50 as greater potency in that assay.
